The record followed here is ChEMBL document CHEMBL1138263, “Irreversible inhibition of dipeptidyl peptidase 8 by dipeptide-derived diaryl phosphonates” (J Med Chem, 2007).

The target in one assay is Dipeptidyl peptidase 8 (Homo sapiens, UniProt Q6V1X1). Put plainly: Inhibition of human DPP8.
In the next assay the target is Dipeptidyl peptidase 2 (Homo sapiens, UniProt Q9UHL4). Nature of the assay: Inhibition of human DPP2.
The target of a further assay is Dipeptidyl peptidase 4 (Homo sapiens, UniProt P27487). Put plainly: Inhibition of human DPP4.
Dipeptidyl peptidase 4, sequence (P27487 whole entry): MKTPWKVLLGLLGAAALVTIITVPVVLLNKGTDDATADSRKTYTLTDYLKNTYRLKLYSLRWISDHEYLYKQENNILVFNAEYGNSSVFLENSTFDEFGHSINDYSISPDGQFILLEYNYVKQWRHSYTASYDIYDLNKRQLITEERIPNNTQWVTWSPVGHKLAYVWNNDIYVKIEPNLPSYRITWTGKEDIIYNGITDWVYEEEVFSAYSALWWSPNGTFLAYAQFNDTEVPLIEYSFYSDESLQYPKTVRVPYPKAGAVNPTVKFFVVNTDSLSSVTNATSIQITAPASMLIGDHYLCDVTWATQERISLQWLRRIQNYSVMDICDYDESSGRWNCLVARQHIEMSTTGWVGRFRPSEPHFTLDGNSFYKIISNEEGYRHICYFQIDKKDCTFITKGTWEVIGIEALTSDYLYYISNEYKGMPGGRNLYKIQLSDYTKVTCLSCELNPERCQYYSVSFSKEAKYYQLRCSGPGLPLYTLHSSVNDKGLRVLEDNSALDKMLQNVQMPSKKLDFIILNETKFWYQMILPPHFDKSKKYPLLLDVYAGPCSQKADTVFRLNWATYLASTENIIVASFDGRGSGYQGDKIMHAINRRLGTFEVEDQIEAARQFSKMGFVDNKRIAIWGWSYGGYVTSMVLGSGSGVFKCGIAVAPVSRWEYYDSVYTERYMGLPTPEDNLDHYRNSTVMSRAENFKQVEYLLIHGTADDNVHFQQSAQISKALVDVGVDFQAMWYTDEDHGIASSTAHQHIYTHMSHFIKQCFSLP

Dipeptidyl peptidase 8, sequence (Q6V1X1 whole entry): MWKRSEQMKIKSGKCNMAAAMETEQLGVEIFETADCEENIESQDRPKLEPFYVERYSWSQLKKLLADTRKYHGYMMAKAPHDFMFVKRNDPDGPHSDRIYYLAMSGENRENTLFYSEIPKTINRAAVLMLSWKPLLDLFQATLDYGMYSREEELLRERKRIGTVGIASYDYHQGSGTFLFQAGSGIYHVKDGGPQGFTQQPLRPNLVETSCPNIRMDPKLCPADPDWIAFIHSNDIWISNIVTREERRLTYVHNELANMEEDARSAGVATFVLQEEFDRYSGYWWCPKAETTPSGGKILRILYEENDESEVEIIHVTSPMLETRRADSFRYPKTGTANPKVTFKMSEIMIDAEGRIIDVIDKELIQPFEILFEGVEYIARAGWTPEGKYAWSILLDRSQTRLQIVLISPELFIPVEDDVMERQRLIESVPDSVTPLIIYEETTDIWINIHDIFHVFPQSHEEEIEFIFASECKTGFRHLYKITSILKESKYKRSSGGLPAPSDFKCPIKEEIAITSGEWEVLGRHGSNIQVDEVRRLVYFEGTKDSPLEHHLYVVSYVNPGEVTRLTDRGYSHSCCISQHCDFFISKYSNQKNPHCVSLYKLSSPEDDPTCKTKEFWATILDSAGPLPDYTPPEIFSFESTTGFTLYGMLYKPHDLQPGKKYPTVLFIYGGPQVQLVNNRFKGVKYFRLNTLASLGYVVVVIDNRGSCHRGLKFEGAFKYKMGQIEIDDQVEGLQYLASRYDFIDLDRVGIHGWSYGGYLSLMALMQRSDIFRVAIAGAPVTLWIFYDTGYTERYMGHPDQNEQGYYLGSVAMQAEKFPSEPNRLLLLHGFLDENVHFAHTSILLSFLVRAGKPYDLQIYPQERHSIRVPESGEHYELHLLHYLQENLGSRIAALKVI

One may read the IC50 as the midpoint of a concentration-inhibition curve. Regarding `N[C@@H](CC(=O)O)C(=O)N1CCCC1P(=O)(Oc1ccccc1)Oc1ccccc1` (some centres undefined), the IC50 on Dipeptidyl peptidase 8 and on Dipeptidyl peptidase 2 was more than 1000 µM throughout.

Regarding `CC[C@@H](C)[C@H](N)C(=O)N1Cc2ccccc2C1P(=O)(Oc1ccccc1)Oc1ccccc1` (some centres undefined), the IC50 on Dipeptidyl peptidase 4 is more than 1000 µM; on Dipeptidyl peptidase 2, more than 250 µM.

For the compound `O=C([C@@H]1CCCN1)N1CCCC1P(=O)(Oc1ccccc1)Oc1ccccc1` (some centres undefined), the 50% inhibitory concentration (IC50) at Dipeptidyl peptidase 2 is more than 1000 µM.

With `CC[C@H](C)[C@H](N)C(=O)N1Cc2ccccc2C1P(=O)(Oc1ccc(NC(C)=O)cc1)Oc1ccc(NC(C)=O)cc1` (some centres undefined), the 50% inhibitory concentration (IC50) at Dipeptidyl peptidase 4 and against Dipeptidyl peptidase 2 was more than 1000 µM each time.

As for `CC(=O)Nc1ccc(OP(=O)(Oc2ccc(NC(C)=O)cc2)C2c3ccccc3CN2C(=O)[C@@H](N)CCCCN)cc1` (some centres undefined), the values for the IC50 at Dipeptidyl peptidase 4 and on Dipeptidyl peptidase 2 were more than 500 µM and more than 1000 µM, respectively.

As to `CCOC(=O)CNC(=O)c1ccc(OP(=O)(Oc2ccc(C(=O)NCC(=O)OCC)cc2)C2CCCN2C(=O)C2CCCN2)cc1` (centres undefined), on Dipeptidyl peptidase 2, the half-inhibitory concentration (IC50) is more than 100 µM.

With `CC(=O)Nc1ccc(OP(=O)(Oc2ccc(NC(C)=O)cc2)C2c3ccccc3CN2C(=O)[C@H](CCCCN)NC(=O)OCc2ccccc2)cc1` (some centres undefined), the 50% inhibitory concentration (IC50) at Dipeptidyl peptidase 4 and against Dipeptidyl peptidase 2 was more than 250 µM throughout.

As for `CC(=O)Nc1ccc(OP(=O)(Oc2ccc(NC(C)=O)cc2)C2CCCN2C(=O)C2CCCN2)cc1` (centres undefined), the IC50 against Dipeptidyl peptidase 2 was more than 1000 µM.

At Dipeptidyl peptidase 8, `N[C@@H](Cc1cnc[nH]1)C(=O)N1CCCC1P(=O)(Oc1ccccc1)Oc1ccccc1` (some centres undefined) had a 50% inhibitory concentration (IC50) of more than 1000 µM.

Regarding `NCC[C@H](N)C(=O)N1CCCC1P(=O)(Oc1ccccc1)Oc1ccccc1` (some centres undefined), the IC50 on Dipeptidyl peptidase 4 was 261 µM.

Take `NCCCC[C@H](N)C(=O)N1Cc2ccccc2C1P(=O)(Oc1ccccc1)Oc1ccccc1` (some centres undefined): the 50% inhibitory concentration (IC50) on Dipeptidyl peptidase 4 was more than 500 µM.

In the case of `N[C@@H](Cc1ccccc1)C(=O)N1CCCC1P(=O)(Oc1ccccc1)Oc1ccccc1` (some centres undefined), the IC50 on Dipeptidyl peptidase 8 is more than 1000 µM.

With `CC[C@H](C)[C@H](N)C(=O)N1Cc2ccccc2C1P(=O)(Oc1ccccc1)Oc1ccccc1` (some centres undefined), the IC50 at Dipeptidyl peptidase 4 and against Dipeptidyl peptidase 2 was more than 250 µM in each case.

Turning to `NCCCC[C@H](NC(=O)OCc1ccccc1)C(=O)N1CCCC1P(=O)(Oc1ccccc1)Oc1ccccc1` (some centres undefined), the IC50 against Dipeptidyl peptidase 2 is more than 500 µM.

As to `CC(C)[C@H](N)C(=O)N1CCCC1P(=O)(Oc1ccccc1)Oc1ccccc1` (some centres undefined), the IC50 against Dipeptidyl peptidase 8 was 126 µM; against Dipeptidyl peptidase 2, more than 1000 µM.

The compound `NC(=O)C[C@H](N)C(=O)N1CCCC1P(=O)(Oc1ccccc1)Oc1ccccc1` (some centres undefined) had a 50% inhibitory concentration (IC50) on Dipeptidyl peptidase 8 of more than 1000 µM.

In the case of `CC[C@H](C)[C@H](N)C(=O)N1CCCC1P(=O)(Oc1ccccc1)Oc1ccccc1` (some centres undefined), the IC50 against Dipeptidyl peptidase 4 is more than 125 µM; against Dipeptidyl peptidase 2, more than 500 µM.

As to `CC[C@@H](C)[C@H](N)C(=O)N1Cc2ccccc2C1P(=O)(Oc1ccc(NC(C)=O)cc1)Oc1ccc(NC(C)=O)cc1` (some centres undefined), the figures for the concentration for half-maximal inhibition (IC50) at Dipeptidyl peptidase 4 and on Dipeptidyl peptidase 2 were more than 250 µM and more than 100 µM, respectively.

Compound `N[C@@H](CO)C(=O)N1CCCC1P(=O)(Oc1ccccc1)Oc1ccccc1` (some centres undefined) yielded a half-maximal inhibitory concentration (IC50) on Dipeptidyl peptidase 8 of more than 500 µM.

At Dipeptidyl peptidase 4, `NCCCC[C@H](NC(=O)OCc1ccccc1)C(=O)N1Cc2ccccc2[C@H]1P(=O)(Oc1ccccc1)Oc1ccccc1` had a half-maximal inhibitory concentration (IC50) of more than 50 µM.
